Assays:
[1] = target: T1, AKT2 (Homo sapiens, UniProt P31751); experiment: Live cell target engagement by NanoBRET competitive probe displacement, AKT2; type: binding; conditions: transfected HEK293 cells, 2 h at 37° C., read-out: AKT2 IC50: GeoMean IC50
T1 construct: expressed in transfected cells; host or cells: HEK293
Method: (§1) Determining live cell AKT1 E17K, AKT1 WT, and AKT2 target engagement by NanoBRET competitive probe displacement. Live cell target engagement assays were performed as described (Vasta, J. D. et al. Cell Chem Biol 2018, 25(11), 206-214). Briefly, HEK293 cells were transfected with plasmids encoding kinase-NanoLuciferase fusion proteins overnight. Cells were then treated with serial dilutions of compound and an ˜EC50 concentration of fluorescently-tagged ATP-competitive tracer (Promega). After incubation for 2 h at 37° C., luciferase substrate and extracellular luciferase inhibitor were added to all wells, and luminescent intensity at 460 nm and 600 nm were measured on a multimode plate-reader. The ratio of E600/E460 was calculated to give the tracer engagement signal (BRET). IC50 values were calculated by fitting BRET values to a log(inhibitor) vs. response Hill equation.

[2] = target: T2, AKT1 E17K (Homo sapiens, UniProt P31749, E17K); experiment: Live cell target engagement by NanoBRET competitive probe displacement, AKT1 E17K; type: binding; conditions: transfected HEK293 cells, 2 h at 37° C., read-out: AKT1 E17K IC50: GeoMean IC50
T2 construct: expressed in transfected cells; host or cells: HEK293
T2 sequence (P31749 whole entry E17K): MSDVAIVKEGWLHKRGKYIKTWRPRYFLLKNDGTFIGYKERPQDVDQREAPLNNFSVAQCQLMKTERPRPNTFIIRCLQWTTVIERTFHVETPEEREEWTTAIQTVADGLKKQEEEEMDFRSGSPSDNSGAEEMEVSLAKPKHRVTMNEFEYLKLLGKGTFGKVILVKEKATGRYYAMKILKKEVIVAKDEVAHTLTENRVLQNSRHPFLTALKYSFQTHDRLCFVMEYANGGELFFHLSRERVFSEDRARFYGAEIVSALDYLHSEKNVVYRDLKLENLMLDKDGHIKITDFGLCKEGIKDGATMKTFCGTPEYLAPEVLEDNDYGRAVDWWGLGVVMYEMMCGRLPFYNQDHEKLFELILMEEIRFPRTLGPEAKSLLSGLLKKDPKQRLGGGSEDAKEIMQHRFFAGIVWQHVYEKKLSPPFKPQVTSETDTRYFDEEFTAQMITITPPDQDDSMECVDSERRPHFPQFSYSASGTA
Method: as §1

[3] = tested on: LAPC4 prostate cancer cells, which express the AKT1 E17K allele; experiment: Antiproliferative effects in LAPC4 cells (CellTiter Glo, 72 h); type: cell-based; conditions: Homo sapiens, LAPC4, 72 h, read-out: LAPC4 proliferation IC50: GeoMean IC50
Method: Antiproliferative effects in LAPC4 cells. LAPC4 prostate cancer cells (Klein, K. A. et al. Nat Med 1997, 3, 402-408), which express the AKT1 E17K allele, were grown in IMDM media (Hyclone) supplemented with 12% FBS+1% P/S. To assess compound effects on growth, 1,000 cells/well were seeded in 384 well assay plates, incubated with compound dilutions dissolved in DMSO. After 72 h, intracellular ATP content was assessed with CellTiter Glo reagent (Promega) according to the manufacturer's instructions. IC50 values were calculated by fitting luminescence values to a log(inhibitor) vs. response Hill equation.

[4] = target: T3, AKT1 WT (Homo sapiens, UniProt P31749); experiment: Live cell target engagement by NanoBRET competitive probe displacement, AKT1 WT; type: binding; conditions: transfected HEK293 cells, 2 h at 37° C., read-out: AKT1 WT IC50: GeoMean IC50
T3 construct: expressed in transfected cells; host or cells: HEK293
T3 sequence (P31749 whole entry): as the sequence (P31749 whole entry E17K) above, with K17E counted along it
Method: as §1

T1 sequence (P31751 whole entry): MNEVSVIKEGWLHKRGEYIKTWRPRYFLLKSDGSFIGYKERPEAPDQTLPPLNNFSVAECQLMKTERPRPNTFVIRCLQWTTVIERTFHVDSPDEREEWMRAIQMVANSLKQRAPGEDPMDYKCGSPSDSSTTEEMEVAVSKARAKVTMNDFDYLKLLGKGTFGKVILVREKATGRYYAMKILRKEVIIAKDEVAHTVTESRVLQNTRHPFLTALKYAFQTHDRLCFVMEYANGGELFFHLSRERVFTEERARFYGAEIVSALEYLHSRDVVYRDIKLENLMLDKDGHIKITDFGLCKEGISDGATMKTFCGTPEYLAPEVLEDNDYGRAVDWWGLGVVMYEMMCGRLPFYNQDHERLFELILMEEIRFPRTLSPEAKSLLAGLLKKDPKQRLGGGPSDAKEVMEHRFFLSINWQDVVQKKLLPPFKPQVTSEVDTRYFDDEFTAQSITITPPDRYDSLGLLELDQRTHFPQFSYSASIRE

Row | IC50 [1] [nM] | IC50 [2] [nM] | IC50 [3] [nM] | IC50 [4] [nM] | SMILES
1 | 100 to 2000 | 10 to 100 | 10 to 100 | 10 to 100 | Nc1ncccc1-c1nc2ccc(-n3cccn3)nc2n1-c1ccc2c(c1)CC[C@@H]2NC(=O)c1cc(C=O)c(O)cc1F [Example 105, (S)—N-(5-(2-(2-aminopyridin-3-yl)-5-(1H-pyrazol-1-yl)-3H-imidazo[4,5-b]pyridin-3-yl)-2,3-dihydro-1H-inden-1-yl)-2-fluoro-5-formyl-4-hydroxybenzamide]
2 | 10 to 100 | 10 to 100 | 10 to 100 | 10 to 100 | Nc1ncccc1-c1nc2ccc(-c3ccccc3)nc2n1-c1ccc2c(c1)CC[C@@H]2NC(=O)c1cc(C=O)c(O)c(F)c1F [Example 22, N-[(1S)-5-[2-(2-aminopyridin-3-yl)-5-phenylimidazo[4,5-b]pyridin-3-yl]-2,3-dihydro-1H-inden-1-yl]-2,3-difluoro-5-formyl-4-hydroxybenzamide]
3 | 10 to 100 | < 10 | < 10 | < 10 | CC(=O)Nc1ccc(C(=O)N[C@H]2CCc3cc(-n4c(-c5cccnc5N)nc5ccc(-c6ccccc6)nc54)ccc32)cc1C=O [Example 14, N-[(1S)-5-[2-(2-aminopyridin-3-yl)-5-phenylimidazo[4,5-b]pyridin-3-yl]-2,3-dihydro-1H-inden-1-yl]-4-acetamido-3-formylbenzamide]
4 | 100 to 2000 | 10 to 100 | 100 to 2000 | 100 to 2000 | Nc1ncccc1-c1nc2ccc(-n3cccn3)nc2n1-c1ccc2c(c1)CC[C@@H]2NC(=O)Cc1ccc(C=O)c(O)c1F [Example 216, (S)—N-(5-(2-(2-aminopyridin-3-yl)-5-(1H-pyrazol-1-yl)-3H-imidazo[4,5-b]pyridin-3-yl)-2,3-dihydro-1H-inden-1-yl)-2-(2-fluoro-4-formyl-3-hydroxyphenyl)acetamide; trifluoroacetic acid]
5 | 100 to 2000 | 10 to 100 | 100 to 2000 | 10 to 100 | Cc1nc(-c2ccc3nc(-c4cccnc4N)n(-c4ccc5c(c4)CC[C@@H]5NC(=O)c4ccc(O)c(C=O)c4)c3n2)no1 [Example 173, N-[(1S)-5-[2-(2-aminopyridin-3-yl)-5-(5-methyl-1,2,4-oxadiazol-3-yl)imidazo[4,5-b]pyridin-3-yl]-2,3-dihydro-1H-inden-1-yl]-3-formyl-4-hydroxybenzamide]
6 | 100 to 2000 | 10 to 100 | 100 to 2000 | 10 to 100 | Nc1ncccc1-c1nc2ccc(-n3cccn3)nc2n1-c1ccc2c(c1)CC[C@@H]2NC(=O)c1cc(C=O)c(O)cc1O [Example 159, (S)—N-(5-(2-(2-aminopyridin-3-yl)-5-(1H-pyrazol-1-yl)-3H-imidazo[4,5-b]pyridin-3-yl)-2,3-dihydro-1H-inden-1-yl)-5-formyl-2,4-dihydroxybenzamide]
7 | 100 to 2000 | < 10 | 10 to 100 | 10 to 100 | Cn1ncc(-c2ccc3nc(-c4cccnc4N)n(-c4ccc5c(c4)CC[C@@H]5NC(=O)c4ccc(O)c(C=O)c4)c3n2)n1 [Example 120, N-[(1S)-5-[2-(2-aminopyridin-3-yl)-5-(2-methyl-1,2,3-triazol-4-yl)imidazo[4,5-b]pyridin-3-yl]-2,3-dihydro-1H-inden-1-yl]-3-formyl-4-hydroxybenzamide]
8 | 100 to 2000 | < 10 | 10 to 100 | 10 to 100 | Nc1ncccc1-c1nc2ccc(-c3ccn(C(F)F)n3)nc2n1-c1ccc2c(c1)CC[C@@H]2NC(=O)c1ccc(O)c(C=O)c1 [Example 113, N-[(1S)-5-[2-(2-aminopyridin-3-yl)-5-[1-(difluoromethyl)pyrazol3-yl]imidazo [4,5-b]pyridin-3-yl]-2,3-dihydro-1H-inden-1-yl]-3-formyl-4-hydroxybenzamide]
9 | 100 to 2000 | 10 to 100 | 10 to 100 | 10 to 100 | Nc1ncccc1-c1nc2ccc(-c3cc4n(n3)CCC4)nc2n1-c1ccc2c(c1)CC[C@@H]2NC(=O)c1cc(C=O)c(O)cc1F [Example 247, N-[(1S)-5-[2-(2-aminopyridin-3-yl)-5-{4H,5H,6H-pyrrolo[1,2-b]pyrazol-2-yl}imidazo[4,5-b]pyridin-3-yl]-2,3-dihydro-1H-inden-1-yl]-2-fluoro-5-formyl-4-hydroxybenzamide]
10 | 100 to 2000 | < 10 | 10 to 100 | 10 to 100 | Cn1ccc(-c2ccc3nc(-c4cccnc4N)n(-c4ccc5c(c4)CC[C@@H]5NC(=O)c4cc(C=O)c(O)cc4F)c3n2)n1 [Example 241, N-[(1S)-5-[2-(2-aminopyridin-3-yl)-5-(1-methylpyrazol-3-yl)imidazo[4,5-b]pyridin-3-yl]-2,3-dihydro-1H-inden-1-yl]-2-fluoro-5-formyl-4-hydroxybenzamide]
11 | 10 to 100 | 10 to 100 | 10 to 100 | 10 to 100 | CC(=O)Nc1c(F)cc(C(=O)N[C@H]2CCc3cc(-n4c(-c5cccnc5N)nc5ccc(-c6ccccc6)nc54)ccc32)cc1C=O [Example 64, N-[(1S)-5-[2-(2-aminopyridin-3-yl)-5-phenylimidazo[4,5-b]pyridin-3-yl]-2,3-dihydro-1H-inden-1-yl]-4-acetamido-3-fluoro-5-formylbenzamide]
12 | ≥ 2000 | 10 to 100 | 100 to 2000 | 100 to 2000 | Nc1ncccc1-c1nc2ccc(F)nc2n1-c1ccc2c(c1)CC[C@@H]2NC(=O)c1ccc(O)c(C=O)c1 [Example 48, N-[(1S)-5-[2-(2-aminopyridin-3-yl)-5-fluoroimidazo[4,5-b]pyridin-3-yl]-2,3-dihydro-1H-inden-1-yl]-3-formyl-4-hydroxybenzamide]
13 | ≥ 2000 | 100 to 2000 | 100 to 2000 | 100 to 2000 | COc1ccc2nc(-c3cccnc3N)n(-c3ccc4c(c3)CC[C@@H]4NC(=O)c3ccc(O)c(C=O)c3)c2n1 [Example 46, (S)—N-(5-(2-(2-aminopyridin-3-yl)-5-methoxy-3H-imidazo[4,5-b]pyridin-3-yl)-2,3-dihydro-1H-inden-1-yl)-3-formyl-4-hydroxybenzamide]
14 | 100 to 2000 | 10 to 100 | 100 to 2000 | 10 to 100 | COc1cc(C(=O)N[C@H]2CCc3cc(-n4c(-c5cccnc5N)nc5ccc(-c6ccccc6)nc54)ccc32)cc(C=O)c1O [Example 36, N-[(1S)-5-[2-(2-aminopyridin-3-yl)-5-phenylimidazo[4,5-b]pyridin-3-yl]-2,3-dihydro-1H-inden-1-yl]-3-formyl-4-hydroxy-5-methoxybenzamide]
15 | 100 to 2000 | < 10 | < 10 | 10 to 100 | CN(C)C(=O)Nc1ccc(C(=O)N[C@H]2CCc3cc(-n4c(-c5cccnc5N)nc5ccc(-n6cccn6)nc54)ccc32)cc1C=O [Example 104, N-[(1S)-5-[2-(2-aminopyridin-3-yl)-5-(pyrazol-1-yl)imidazo[4,5-b]pyridin-3-yl]-2,3-dihydro-1H-inden-1-yl]-4-[(dimethylcarbamoyl)amino]-3-formylbenzamide]
16 | 100 to 2000 | 10 to 100 | 100 to 2000 | 100 to 2000 | Nc1ccn(-c2ccc3nc(-c4cccnc4N)n(-c4ccc5c(c4)CC[C@@H]5NC(=O)c4ccc(O)c(C=O)c4)c3n2)n1 [Example 134, N-[(1S)-5-[5-(3-aminopyrazol-1-yl)-2-(2-aminopyridin-3-yl)imidazo[4,5-b]pyridin-3-yl]-2,3-dihydro-1H-inden-1-yl]-3-formyl-4-hydroxybenzamide]
17 | 10 to 100 | < 10 | 10 to 100 | < 10 | Nc1ncccc1-c1nc2c(Cl)cc(-n3cccn3)nc2n1-c1ccc2c(c1)CC[C@@H]2NC(=O)c1cc(C=O)c(O)c(F)c1F [Example 212, N-[(1S)-5-[2-(2-aminopyridin-3-yl)-7-chloro-5-(pyrazol-1-yl)imidazo[4,5-b]pyridin-3-yl]-2,3-dihydro-1H-inden-1-yl]-2,3-difluoro-5-formyl-4-hydroxybenzamide]
18 | 100 to 2000 | 10 to 100 | 100 to 2000 | 10 to 100 | COc1cncc(-c2ccc3nc(-c4cccnc4N)n(-c4ccc5c(c4)CC[C@@H]5NC(=O)c4ccc(O)c(C=O)c4)c3n2)n1 [Example 80, N-[(1S)-5-[2-(2-aminopyridin-3-yl)-5-(6-methoxypyrazin-2-yl)imidazo[4,5-b]pyridin-3-yl]-2,3-dihydro-1H-inden-1-yl]-3-formyl-4-hydroxybenzamide]
